Results published in ChEMBL document CHEMBL1201862, “PubChem BioAssay data set” (2004).
Active and inactive are the calls of the source.

How the values were obtained:
[1] = cells
[2] = molecular target: NS3 (Hepatitis C virus, UniProt A3EZJ3); assay: PubChem AID 2173; set-up: species or system Hepacivirus hominis
[3] = molecular target: Major prion protein (Homo sapiens, UniProt P04156); assay type: functional, cell-based
[4] = inhibitors of intracellular T. cruzi replication, confirmation, NIH3T3 host cells, beta-gal luminescence (AID 2044); assay type: functional, cell-based;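 further: intracellular parasites grown in NIH/3T3 mouse fibroblasts as host cells; luminescent beta-galactosidase reporter signal from transgenic T. cruzi replicating inside host cells; inhibitors lower the luminescence signal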
[5] = cells; remark: listed apart in the source
[6] = cytotoxicity toward NIH3T3 fibroblasts, dose response, counter-screen, cell-based, ATP luminescence, mouse fibroblasts (AID 2010); assay type: functional;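 further: cells exposed to compound for about 90 hours before reading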
[7] = Jurkat T cell cytotoxicity, dose response, cytotoxicity control for P. falciparum gametocyte viability project, luminescence (AID 1117277); assay type: functional, cell-based;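 further: potency reflects loss of cellular ATP meaning fewer viable cells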
[8] = P. falciparum late gametocyte killing, dose response, luminescence (AID 1117278); assay type: functional, cell-based;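 further: gametocytes exposed to compound for 24 hours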
[9] = molecular target: Peroxisome proliferator-activated receptor gamma/Nuclear receptor coactivator 2 (Homo sapiens, UniProt P37231); assay type: functional;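 further: agonist potency for raising coactivator recruitment to the receptor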
[10] = molecular target: Peroxisome proliferator-activated receptor gamma/Nuclear receptor coactivator 1 (Homo sapiens, UniProt P37231); assay type: functional;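 further: agonist potency as compounds enhance coactivator SRC-1 recruitment to PPARgamma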
[11] = molecular target: T1, Estrogen receptor (Homo sapiens, UniProt P03372); assay: potentiators of ERα–SRC-1 coactivator binding, dose response, biochemical, TR-FRET, ERα LBD (AID 737)
T1 sequence (P03372 whole entry): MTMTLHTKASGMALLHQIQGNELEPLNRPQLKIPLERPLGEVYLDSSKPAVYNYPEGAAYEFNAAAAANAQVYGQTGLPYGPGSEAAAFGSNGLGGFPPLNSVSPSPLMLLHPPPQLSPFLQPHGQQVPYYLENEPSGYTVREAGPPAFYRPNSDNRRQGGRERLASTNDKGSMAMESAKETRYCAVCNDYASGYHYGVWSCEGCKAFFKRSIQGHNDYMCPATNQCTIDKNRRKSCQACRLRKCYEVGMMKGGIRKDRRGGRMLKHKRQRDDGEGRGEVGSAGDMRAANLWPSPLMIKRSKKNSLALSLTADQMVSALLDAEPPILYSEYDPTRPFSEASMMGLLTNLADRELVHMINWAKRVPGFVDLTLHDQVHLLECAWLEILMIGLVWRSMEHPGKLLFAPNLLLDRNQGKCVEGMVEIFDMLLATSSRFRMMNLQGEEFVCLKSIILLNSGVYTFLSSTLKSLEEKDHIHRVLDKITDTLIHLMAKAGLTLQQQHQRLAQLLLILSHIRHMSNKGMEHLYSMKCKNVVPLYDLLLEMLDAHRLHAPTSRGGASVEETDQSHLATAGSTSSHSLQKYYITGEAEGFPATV

[12] = molecular target: Peroxisome proliferator-activated receptor gamma/Nuclear receptor coactivator 3 (Homo sapiens, UniProt P37231); assay type: functional;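 further: agonist potency for raising coactivator recruitment to the receptor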
[13] = Luminescence Cell-Based Dose Confirmation HTS to Identify Activators of 5'UTR Stem-Loop Driven Alpha-Synuclein mRNA Translation in H4 Neuroglioblastoma Cells. [Related pubchem assays: 1829 (Project Summary), 1814 (Primary HTS)]; assay type: functional
[14] = Luminescence Cell-Based Dose Response HTS to Identify Activators of Luciferase Translation or Activity in H4 […] Cells. [Related pubchem assays: 1829 (Project Summary), 1814 (Primary HTS)]; assay type: functional
[15] = system: H4; assay: Luminescence Cell-Based Dose Response HTS to Identify Activators of 5'UTR Stem-Loop Driven Prion Protein mRNA Translation in H4 Neuroglioblastoma Cells. [Related pubchem assays: 1829 (Project Summary), 1814 (Primary HTS)]; assay type: functional; conditions: Homo sapiens
[16] = HEp-2 cell cytotoxicity, dose response, cytotoxicity control for RSV inhibitor project, HTS (AID 2410); assay type: functional; conditions: human respiratory syncytial virus
[17] = molecular target: Cytochrome P450 2D6 (Homo sapiens, UniProt P10635); assay: qHTS Assay for Inhibitors and Substrates of Cytochrome P450 2D6. [Related pubchem assays: 410 ]; assay type: ADME; conditions: read-out: Potency

With `CCCOc1ccc(C(=O)C2=C(O)C(=O)N(c3ccccn3)C2c2ccccc2F)cc1C` (stereo unspecified) the IC50 [1] was > 138 µM (inactive), the IC50 [2] was 5.77 µM (active) and the IC50 [3] was 2.96 µM (active).
For `CCCCN(CC)CCNC(=O)c1nn(-c2ccc(OC)cc2)c(=O)c2c1c1ccccc1n2C`, the EC50 [4] was < 0.1 µM (active), the EC50 [5] was 0.207 µM (active) and the EC50 [6] was > 60 µM (not active).
For `CCN1CCN(C(=O)c2ccc3c(=O)n(C4CCCC4)c(=S)[nH]c3c2)CC1`, the IC50 [7] was > 83.3 µM (inactive) and the IC50 [8] was > 109 µM (inactive).
In the case of `COC(=O)c1ccc(COC(=O)c2ccc(S(=O)(=O)N3CCC(C)CC3)cc2)o1`, the EC50 [9] is reported as > 79.4 µM (not active), the EC50 [10] is reported as > 79.4 µM (not active) and the EC50 [11] is reported as 12.6 µM (not active). For the same compound, the EC50 [12] was > 79.4 µM (not active).
With `C[C@H]1CCC[C@@H](O)CCC/C=C/c2cc(O)cc(O)c2C(=O)O1` the EC50 [13] was 15.3 µM (active), the EC50 [14] was > 120 µM (not active) and the EC50 [15] was > 120 µM (not active). The CC50 [16] was 8.71 µM (active) and the EC50 [11] was 9.22 µM (active).
In the case of `COC(=O)c1c(NC(=O)Cn2cnc([N+](=O)[O-])n2)sc2c1CCC(C)C2` (stereo unspecified), the EC50 [4] is reported as < 0.1 µM (active), the EC50 [5] is reported as 0.112 µM (active) and the EC50 [6] is reported as > 60 µM (inconclusive).
With `O[C@@H]1CC[C@H]2Cc3ccccc3N=C21` the AC50 [17] was 20 µM (inconclusive).
